Laboratory results published in patent publication US12162840B2, “Herbicidal compositions” (SYNGENTA PARTICIPATIONS AG, priority 2018, dated 2024).

Assays:
Assay type in all cases: in vivo
[1] = tested on: Amaranthus retoflexus (AMARE); test: B1 Post-emergence efficacy Test 1; conditions: post-emergence application, 1000 g/ha, evaluated after 13 days
Summary of the method: (§1)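 Eight days after sowing, potted plants in a glasshouse at 24/16 °C day/night were sprayed at 1000 g/ha. Thirteen days on, percentage plant damage was recorded and converted to a score from 1 (0-19%) to 5 (80-100%).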

[2] = tested on: Echinochloa crus-galli (ECHCG); test: B1 Post-emergence efficacy Test 1; conditions: post-emergence application, 1000 g/ha, evaluated after 13 days
Summary of the method: as §1

[3] = tested on: Ipomoea hederacea (IPOHE); test: B1 Post-emergence efficacy Test 1; conditions: post-emergence application, 1000 g/ha, evaluated after 13 days
Summary of the method: as §1

Lolium perenne (LOLPE) = test: B1 Post-emergence efficacy Test 1; conditions: post-emergence application, 1000 g/ha, evaluated after 13 days
Summary of the method: as §1

Setaria faberi (SETFA) = test: B1 Post-emergence efficacy Test 1; conditions: post-emergence application, 1000 g/ha, evaluated after 13 days
Summary of the method: as §1

Solanum nigrum (SOLNI) = test: B1 Post-emergence efficacy Test 1; conditions: post-emergence application, 1000 g/ha, evaluated after 13 days
Summary of the method: as §1

[4] = tested on: warm season plant species; test: B2 Post-emergence efficacy Test 2, warm season plant species; conditions: 15 days after application, 0-100 scale, 0=no damage, 100=total kill; for Herbicidal activity, ABUTH: Abutilon theophrasti; for Herbicidal activity, AMARE: Amaranthus retroflexus; for Herbicidal activity, BIDPI: Bidens pilosa; for Herbicidal activity, BRAPL: Brachiaria plantaginea; for Herbicidal activity, DIGSA: Digitaria sanguinalis; for Herbicidal activity, ECHCG: Echinochloa crus galli; for Herbicidal activity, ELEIN: Eleisine indica; for Herbicidal activity, EPHHL: Euphorbia hetrophylla; for Herbicidal activity, GLXMA: Glycine max; for Herbicidal activity, IPOHE: Ipomoea hederacea; for Herbicidal activity, ORYSA: Orysa sativa; for Herbicidal activity, PANMI: Panicum miliaceum; for Herbicidal activity, SETFA: Setaria faberi; for Herbicidal activity, SIDSP: Sida spinosa; for Herbicidal activity, SORVU: Sorghum bicolour; for Herbicidal activity, XANST: Xanthium strumarium; for Herbicidal activity, ZEAMX: Zea mays
Summary of the method: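 Plants at 12 days post-sowing were sprayed with active ingredient formulated in IF50 plus 0.2% v/v Genapol XO80, then grown in a glasshouse (24/18 °C or 20/16 °C day/night, 16 h light, 65% humidity). Damage scored 15 days after application on 0–100 scale (100 = total kill).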

Cc1nn(C)c(=O)c(-c2c(F)ccc(Cl)c2CCc2ccc(Cl)cc2)c1OC(=O)C(C)C [Compound 1.089]
percentage damage caused to the plant, five point scale, AMARE [1]: 5 (5=80-100%)
percentage damage caused to the plant, five point scale, ECHCG [2]: 5 (5=80-100%)
percentage damage caused to the plant, five point scale, IPOHE [3]: 5 (5=80-100%)
percentage damage caused to the plant, five point scale, LOLPE (Lolium perenne (LOLPE)): 5 (5=80-100%)
percentage damage caused to the plant, five point scale, SETFA (Setaria faberi (SETFA)): 5 (5=80-100%)
percentage damage caused to the plant, five point scale, SOLNI (Solanum nigrum (SOLNI)): 5 (5=80-100%)
Herbicidal activity, ABUTH ([4]; 15 g/Ha): 70
Herbicidal activity, ABUTH ([4]; 30 g/Ha): 90
Herbicidal activity, ABUTH ([4]; 60 g/Ha): 100
Herbicidal activity, ABUTH ([4]; 125 g/Ha): 100
Herbicidal activity, ABUTH ([4]; 250 g/Ha): 100
Herbicidal activity, ABUTH ([4]; 500 g/Ha): 100
Herbicidal activity, AMARE ([4]; 15 g/Ha): 80
Herbicidal activity, AMARE ([4]; 30 g/Ha): 80
Herbicidal activity, AMARE ([4]; 60 g/Ha): 90
Herbicidal activity, AMARE ([4]; 125 g/Ha): 100
Herbicidal activity, AMARE ([4]; 250 g/Ha): 100
Herbicidal activity, AMARE ([4]; 500 g/Ha): 100
Herbicidal activity, BIDPI ([4]; 15 g/Ha): 70
Herbicidal activity, BIDPI ([4]; 30 g/Ha): 60
Herbicidal activity, BIDPI ([4]; 60 g/Ha): 70
Herbicidal activity, BIDPI ([4]; 125 g/Ha): 80
Herbicidal activity, BIDPI ([4]; 250 g/Ha): 80
Herbicidal activity, BIDPI ([4]; 500 g/Ha): 100
Herbicidal activity, BRAPL ([4]; 15 g/Ha): 80
Herbicidal activity, BRAPL ([4]; 30 g/Ha): 90
Herbicidal activity, BRAPL ([4]; 250 g/Ha): 90
Herbicidal activity, BRAPL ([4]; 500 g/Ha): 90
Herbicidal activity, DIGSA ([4]; 15 g/Ha): 0
Herbicidal activity, DIGSA ([4]; 30 g/Ha): 0
Herbicidal activity, DIGSA ([4]; 60 g/Ha): 0
Herbicidal activity, DIGSA ([4]; 125 g/Ha): 10
Herbicidal activity, DIGSA ([4]; 250 g/Ha): 40
Herbicidal activity, DIGSA ([4]; 500 g/Ha): 30
Herbicidal activity, ECHCG ([4]; 15 g/Ha): 80
Herbicidal activity, ECHCG ([4]; 30 g/Ha): 80
Herbicidal activity, ECHCG ([4]; 60 g/Ha): 80
Herbicidal activity, ECHCG ([4]; 125 g/Ha): 90
Herbicidal activity, ECHCG ([4]; 250 g/Ha): 90
Herbicidal activity, ECHCG ([4]; 500 g/Ha): 100
Herbicidal activity, ELEIN ([4]; 15 g/Ha): 0
Herbicidal activity, ELEIN ([4]; 30 g/Ha): 0
Herbicidal activity, ELEIN ([4]; 60 g/Ha): 70
Herbicidal activity, ELEIN ([4]; 125 g/Ha): 80
Herbicidal activity, ELEIN ([4]; 250 g/Ha): 90
Herbicidal activity, ELEIN ([4]; 500 g/Ha): 90
Herbicidal activity, EPHHL ([4]; 15 g/Ha): 80
Herbicidal activity, EPHHL ([4]; 30 g/Ha): 100
Herbicidal activity, EPHHL ([4]; 60 g/Ha): 100
Herbicidal activity, EPHHL ([4]; 125 g/Ha): 100
Herbicidal activity, EPHHL ([4]; 250 g/Ha): 100
Herbicidal activity, EPHHL ([4]; 500 g/Ha): 100
Herbicidal activity, GLXMA ([4]; 30 g/Ha): 70
Herbicidal activity, GLXMA ([4]; 60 g/Ha): 80
Herbicidal activity, GLXMA ([4]; 250 g/Ha): 100
Herbicidal activity, GLXMA ([4]; 500 g/Ha): 100
Herbicidal activity, IPOHE ([4]; 15 g/Ha): 100
Herbicidal activity, IPOHE ([4]; 30 g/Ha): 100
Herbicidal activity, IPOHE ([4]; 60 g/Ha): 100
Herbicidal activity, IPOHE ([4]; 125 g/Ha): 100
Herbicidal activity, IPOHE ([4]; 250 g/Ha): 100
Herbicidal activity, IPOHE ([4]; 500 g/Ha): 100
Herbicidal activity, ORYSA ([4]; 15 g/Ha): 0
Herbicidal activity, ORYSA ([4]; 30 g/Ha): 0
Herbicidal activity, ORYSA ([4]; 60 g/Ha): 0
Herbicidal activity, ORYSA ([4]; 125 g/Ha): 10
Herbicidal activity, ORYSA ([4]; 250 g/Ha): 20
Herbicidal activity, ORYSA ([4]; 500 g/Ha): 50
Herbicidal activity, PANMI ([4]; 15 g/Ha): 0
Herbicidal activity, PANMI ([4]; 30 g/Ha): 20
Herbicidal activity, PANMI ([4]; 60 g/Ha): 50
Herbicidal activity, PANMI ([4]; 125 g/Ha): 60
Herbicidal activity, PANMI ([4]; 250 g/Ha): 80
Herbicidal activity, PANMI ([4]; 500 g/Ha): 90
Herbicidal activity, SETFA ([4]; 15 g/Ha): 0
Herbicidal activity, SETFA ([4]; 30 g/Ha): 20
Herbicidal activity, SETFA ([4]; 60 g/Ha): 30
Herbicidal activity, SETFA ([4]; 125 g/Ha): 60
Herbicidal activity, SETFA ([4]; 250 g/Ha): 60
Herbicidal activity, SETFA ([4]; 500 g/Ha): 80
Herbicidal activity, SIDSP ([4]; 30 g/Ha): 80
Herbicidal activity, SIDSP ([4]; 60 g/Ha): 90
Herbicidal activity, SIDSP ([4]; 125 g/Ha): 100
Herbicidal activity, SIDSP ([4]; 250 g/Ha): 100
Herbicidal activity, SIDSP ([4]; 500 g/Ha): 100
Herbicidal activity, SORVU ([4]; 15 g/Ha): 0
Herbicidal activity, SORVU ([4]; 30 g/Ha): 60
Herbicidal activity, SORVU ([4]; 60 g/Ha): 70
Herbicidal activity, SORVU ([4]; 125 g/Ha): 90
Herbicidal activity, SORVU ([4]; 250 g/Ha): 90
Herbicidal activity, SORVU ([4]; 500 g/Ha): 90
Herbicidal activity, XANST ([4]; 30 g/Ha): 90
Herbicidal activity, XANST ([4]; 60 g/Ha): 80
Herbicidal activity, XANST ([4]; 125 g/Ha): 90
Herbicidal activity, XANST ([4]; 250 g/Ha): 90
Herbicidal activity, XANST ([4]; 500 g/Ha): 100
Herbicidal activity, ZEAMX ([4]; 15 g/Ha): 0
Herbicidal activity, ZEAMX ([4]; 30 g/Ha): 20
Herbicidal activity, ZEAMX ([4]; 60 g/Ha): 30
Herbicidal activity, ZEAMX ([4]; 125 g/Ha): 30
Herbicidal activity, ZEAMX ([4]; 250 g/Ha): 90
Herbicidal activity, ZEAMX ([4]; 500 g/Ha): 100
